Measurements from patent US20080280891A1, “Anti-cancer agents and uses thereof” (Locus Pharmaceuticals, Inc., priority 2006, published 2008).

Experiments:
Assay type in all cases: cell-based
[1] = test system: Jurkat cells; assay: Cell viability assay (WST-1), Jurkat cells; conditions: Homo sapiens, WST-1, 48-72 hrs, 0.5% fetal calf serum
Method: (§1) Jurkat and Hela cells were cultured in RPMI and EMEM media, respectively, containing 0.5% fetal calf serum. Cells were plated in a volume of 100 μL in a 96 well format. Test compounds were included in the culture media at concentrations ranging from 1 nM to 10 μM for a period of 48-72 hrs. Cell viability was determined using the WST-1 calorimetric mitochondrial reduction assay. Briefly, 10 μL of WST-1 reagent was included in the culture well for a period of 1 to 4 hrs. The WST-1 reaction was read on a multiwell spectrophotometer as the difference in the absorbance between 450 nm and 600 nm (baseline). Absorbance was proportional to the number of living cells in the culture well. Concentration response curves and IC50 values were calculated using GraphPAD Prism graphing and curve fitting program.

[2] = test system: Hela cells; assay: Cell viability assay (WST-1), Hela cells; conditions: WST-1, 48-72 hrs, 0.5% fetal calf serum
Method: as §1

[3] = test system: Jurkat T-cell leukemic cells; assay: Cell cycle assay (Example 163), G2/M block in Jurkat cells; conditions: 24 h, flow cytometry (PI), Table 2; for activation at 0.1 µM: Homo sapiens, Jurkat
Method: (§2) MCF-7 breast cancer cells and Jurkat T-cell leukemic cells were grown (and maintained) in EMEM and RPMI media, respectively, containing 10% fetal calf serum.
Test agents were added a concentration of 0.1 μM. Twenty-fours after test agent addition, cells were analyzed for cell cycle status as described below.
(§3) Cell cycle status was analyzed by flow cytometry. Briefly, cells were collected and washed with FACs buffer (Pharmingen) and resuspended and fixed in 1 mL of 80% ethanol for 1 hr. Cells were washed with FACs buffer and resuspended in propidium iodide(PI)/RNase staining buffer (Pharmingen). PI is a fluorescent dye that labels nucleic acids such as DNA. The fluorescence within a cell (in the presence of PI) is proportional to the amount of DNA within a cell. The cell content of DNA is an indices of status in the cell cycle. […] Cells in the S phase have DNA content that lies between these extremes.
(§4) For testing of cell cycle effects of test agents the percentage of cells within the G1 and G2/M phase were measured.

[4] = test system: MCF-7 breast cancer cells; assay: Cell cycle assay (Example 163), G2/M block in MCF-7 cells; conditions: flow cytometry (PI), Table 2; for activation at 1 µM: Homo sapiens, MCF7, 24 h
Method: as §2
Cells were allowed to adhere for 24 hrs. After adherence, cell culture media was changed to that containing 0.5% FCS. Thirty minutes post-media change, test compounds were added at a concentration of 1 μM. Twenty-fours after test agent addition, cells were analyzed for cell cycle status as described below.
as §3, §4

Compound	IC50 [1] [µM]	IC50 ([2]; Homo sapiens, HeLa) [µM]	activation at 0.1 µM [3] [%]	activation at 1 µM [4] [%]	IC50 [2] [µM]	Jurkat G2/M Block 0.1 μM [3]	MCF-7 G2/M Block 1 μM ([4]; 24 h)
Oc1ccc(C(O)c2cccnc2)cc1C12CC3CC(CC(C3)C1)C2 (stereo not drawn) [2-Adamantan-1-yl-4-(hydroxy-pyridin-3-yl-methyl)-phenol]	1 to 30	> 3	< 50				
Oc1cc(Nc2cccnc2)cc(-c2cccc3[nH]ccc23)c1Cc1ccccc1 [2-Benzyl-3-(1H-Indol-4-yl)-5-(pyridin-3-ylamino)-phenol]	1 to 30	1 to 30	< 50	< 50			
Oc1cc(Nc2cccnc2)cc(-c2ccccc2Cl)c1 [2′-Chloro-5-(pyridin-3-ylamino)-biphenyl-3-ol]	> 3	1 to 30	< 50	< 50			
CC(O)(c1cccnc1)c1cc(O)cc(-c2cccc3[nH]ccc23)c1 (stereo not drawn) [3-(1-Hydroxy-1-pyridin-3-yl-ethyl)-5-(1H-indol-4-yl)-phenol]	1 to 30	0.001 to 0.999	< 50				
Cn1ccc2cccc(-c3cc(O)cc(Nc4cccnc4)c3)c21 [3-(1-Methyl-1H-indol-7-yl)-5-(pyridin-3-ylamino)-phenol]	1 to 30	> 3	< 50				
Oc1cc(Nc2cccnc2)cc(-c2cccc3cn[nH]c23)c1 [3-(1H-Indazol-7-yl)-5-(pyridin-3-ylamino)-phenol]	0.001 to 0.999	1 to 30	< 50	< 50			
[O-][n+]1cccc(Nc2cc(O)cc(-c3cccc4[nH]ccc34)c2)c1 [3-(1H-Indol-4-yl)-5-(1-oxy-pyridin-3-ylamino)-phenol]					0.001 to 0.999	Y (Y indicates a 50% or greater increase in the number of cells in the G2/M phase, as compared to control)	Y (Y indicates a 50% or greater increase in the number of cells in the G2/M phase, as compared to control)
Oc1cc(Nc2cnccn2)cc(-c2cccc3[nH]ccc23)c1 [3-(1H-Indol-4-yl)-5-(pyrazin-2-ylamino)-phenol]	0.001 to 0.999	0.001 to 0.999	≥ 50	≥ 50			
Oc1cc(Nc2ccccn2)cc(-c2cccc3[nH]ccc23)c1 [3-(1H-Indol-4-yl)-5-(pyridin-2-ylamino)-phenol]		0.001 to 0.999	≥ 50	< 50			
Oc1cc(Nc2ccncc2)cc(-c2cccc3[nH]ccc23)c1 [3-(1H-Indol-4-yl)-5-(pyridin-4-ylamino)-phenol]	0.001 to 0.999	0.001 to 0.999	≥ 50	≥ 50			

Now from value to compound, other results behind:

IC50 [1] [µM]	IC50 ([2]; Homo sapiens, HeLa) [µM]	Compound	activation at 0.1 µM [3] [%]	activation at 1 µM [4] [%]	IC50 [2] [µM]	Jurkat G2/M Block 0.1 μM [3]	MCF-7 G2/M Block 1 μM ([4]; 24 h)
0.001 to 0.999	1 to 30	Oc1cc(Nc2cccnc2)cc(-c2ccc3[nH]ccc3c2)c1 [3-(1H-Indol-5-yl)-5-(pyridin-3-ylamino)-phenol]	≥ 50	< 50			
1 to 30	1 to 30	Oc1cc(Nc2cccnc2)cc(-c2ccc3cc[nH]c3c2)c1 [3-(1H-Indol-6-yl)-5-(pyridin-3-ylamino)-phenol]	< 50	< 50			
1 to 30	> 3	Oc1cc(Nc2cccnc2)cc(-c2cccc3cc[nH]c23)c1 [3-(1H-Indol-7-yl)-5-(pyridin-3-ylamino)-phenol]	< 50	< 50			
0.001 to 0.999	1 to 30	Oc1cc(Nc2cccnc2)cc(-c2cnc3ccccc3c2)c1 [3-(Pyridin-3-ylamino)-5-quinolin-3-yl-phenol]	< 50	< 50			
	1 to 30	Oc1cc(Nc2cccnc2)cc(-c2cccc3cccnc23)c1 [3-(Pyridin-3-ylamino)-5-quinolin-8-yl-phenol]	< 50	< 50			
1 to 30	> 3	Oc1cc(Nc2cccnc2)cc(-c2ccc3c(c2)OCO3)c1 [3-Benzo[1,3]dioxol-5-yl-5-(pyridin-3-ylamino)-phenol]	< 50				
